According to paper PMC12655757, “Design and Synthesis of Novel Candidate CK1δ Proteolysis Targeting Chimeras (PROTACs)” (Molecules, 2025):

Legend:
[1] = biological target: T1, CK1δ (Homo sapiens, UniProt P48730); assay: in vitro radiometric kinase assay ([…]-ATP, CK1 peptide substrate); type: biochemical
T1 construct: gene CSNK1D

[2] = biological target: T1, CK1δ; assay: in vitro radiometric kinase assay ([…]-ATP, CK1 peptide substrate); CRBN-dependent CK1δ degradation in cells; type: biochemical

T1 sequence (P48730 whole entry): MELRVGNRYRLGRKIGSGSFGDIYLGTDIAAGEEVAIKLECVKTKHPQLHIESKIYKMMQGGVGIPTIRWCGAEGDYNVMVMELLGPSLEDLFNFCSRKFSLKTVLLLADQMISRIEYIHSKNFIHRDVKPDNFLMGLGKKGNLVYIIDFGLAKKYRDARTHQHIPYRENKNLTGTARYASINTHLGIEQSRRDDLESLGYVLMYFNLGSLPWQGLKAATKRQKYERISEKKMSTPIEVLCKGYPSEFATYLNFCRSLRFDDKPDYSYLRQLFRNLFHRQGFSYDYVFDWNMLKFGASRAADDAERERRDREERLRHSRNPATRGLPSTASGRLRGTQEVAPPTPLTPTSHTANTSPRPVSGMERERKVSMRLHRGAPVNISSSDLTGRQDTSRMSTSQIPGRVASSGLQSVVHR

IC50 [1]	IC50 [2]	SMILES
3430 nM	–	Nc1ccc(Cn2c(SCC(=O)Nc3nc4ccc(C(F)(F)F)cc4s3)nccc2=O)cc1 [I9]
–	2160 nM	O=C1CCC(N2C(=O)c3cccc(NCCCCCC(=O)Nc4ccc(Cn5c(SCC(=O)Nc6nc7ccc(C(F)(F)F)cc7s6)nccc5=O)cc4)c3C2=O)C(=O)N1 (stereo not shown) [P1d]
1960 nM	–	O=C1CCC(N2C(=O)c3cccc(OCCCOCCC(=O)Nc4ccc(Cn5c(SCC(=O)Nc6nc7ccc(C(F)(F)F)cc7s6)nccc5=O)cc4)c3C2=O)C(=O)N1 (stereo not shown) [P3d]
~2200 nM	–	O=C1CCC(N2C(=O)c3ccc(OCCCOCCC(=O)Nc4ccc(Cn5c(SCC(=O)Nc6nc7ccc(C(F)(F)F)cc7s6)nccc5=O)cc4)cc3C2=O)C(=O)N1 (stereo not shown) [P4d]
